Activity calls are given as the source filed them. The calls are words filed in the database; no cut-off is given here.
What was measured:
[1] = Induction of copper transporting activity in human HeLa cells assessed as fold increase in intracellular copper levels at 2 uM incubated for 4 hrs by ICP-MS analysis; type: functional
[2] = Stability of compound in PBS buffer in presence of EDTA by UV-Vis spectrophotometer analysis; type: physicochemical
[3] = Stability of the compound in cell culture medium containing 10% fetal bovine serum in presence of EDTA by UV-Vis spectrophotometer analysis; type: physicochemical, cell-free; details: cattle
[4] = Photophysical property of the compound assessed as fluorescence quantum yield; type: physicochemical
HeLa = assay: Induction of copper transporting activity in human HeLa cells assessed as increase in intracellular copper levels incubated upto 24 hrs by ICP-MS analysis; type: functional, cell-based; details: dose 0.02-20 µM
Hepatocyte = assay: Cytotoxicity against mouse Hepatocyte assessed as cell viability at 0.1 to 5 uM measured at 24 hrs by MTT assay; type: toxicity, cell-based; details: hepatocytes, dose 0.1-5 µM
HepG2 [5] = assay: Anti-NAFLD activity in palmitic acid human HepG2 NAFLD cell model assessed as cell viability at 0.1 to 0.5 uM compound administrated as copper complex measured at 24 hrs by MTT assay; type: functional, cell-based; details: dose 0.1-0.5 µM
HepG2 [6] = assay: Anti-NAFLD activity in palmitic acid human HepG2 NAFLD cell model assessed as increase in ROS level at 5 uM compound administrated as copper complex measured at 24 hrs by DCFH-DA probe based flow cytometry analysis; type: functional
HepG2 [7] = assay: Anti-NAFLD activity in palmitic acid human HepG2 NAFLD cell model assessed as effect on IL6 expression at 0.5 uM incubated for 24 hrs in presence of CuCl2 by mRNA sequencing analysis; type: functional, cell-based
HepG2 [8] = assay: Anti-NAFLD activity in palmitic acid human HepG2 NAFLD cell model assessed as effect on CYP4F11 expression at 0.5 uM incubated for 24 hrs in presence of CuCl2 by mRNA sequencing analysis; type: functional, cell-based
HepG2 [9] = assay: Anti-NAFLD activity in palmitic acid human HepG2 NAFLD cell model assessed as effect on SLC48A1 expression at 0.5 uM incubated for 24 hrs in presence of CuCl2 by mRNA sequencing analysis; type: functional, cell-based
HepG2 [10] = assay: Anti-NAFLD activity in palmitic acid human HepG2 NAFLD cell model assessed as upregulation of MT1E expression at 0.5 uM incubated for 24 hrs in presence of CuCl2 by mRNA sequencing analysis; type: functional, cell-based
HepG2 [11] = assay: Anti-NAFLD activity in palmitic acid human HepG2 NAFLD cell model assessed as downregulation of STEAP4 expression at 0.5 uM incubated for 24 hrs in presence of CuCl2 by mRNA sequencing analysis; type: functional, cell-based
HepG2 [12] = assay: Anti-NAFLD activity in palmitic acid human HepG2 NAFLD cell model assessed as upregulation of fatty acid metabolism related genes at 0.5 uM incubated for 24 hrs in presence of CuCl2 by mRNA sequencing analysis; type: functional, cell-based
HepG2 [13] = assay: Anti-NAFLD activity in palmitic acid human HepG2 NAFLD cell model assessed as upregulation of CYP4F12 expression at 0.5 uM incubated for 24 hrs in presence of CuCl2 by mRNA sequencing analysis; type: functional, cell-based
HepG2 [14] = assay: Anti-NAFLD activity in palmitic acid human HepG2 NAFLD cell model assessed as upregulation of CYP4F3 expression at 0.5 uM incubated for 24 hrs in presence of CuCl2 by mRNA sequencing analysis; type: functional, cell-based
HepG2 [15] = assay: Anti-NAFLD activity in palmitic acid human HepG2 NAFLD cell model assessed as upregulation of NQO1 expression at 0.5 uM incubated for 24 hrs in presence of CuCl2 by mRNA sequencing analysis; type: functional, cell-based
HepG2 [16] = assay: Anti-NAFLD activity in palmitic acid human HepG2 NAFLD cell model assessed as downregulation of IL6 expression at 0.5 uM incubated for 24 hrs in presence of CuCl2 by mRNA sequencing analysis; type: functional, cell-based
HepG2 [17] = assay: Anti-NAFLD activity in palmitic acid human HepG2 NAFLD cell model assessed as downregulation of STAT1 expression at 0.5 uM incubated for 24 hrs in presence of CuCl2 by mRNA sequencing analysis; type: functional, cell-based
HepG2 [18] = assay: Anti-NAFLD activity in palmitic acid human HepG2 NAFLD cell model assessed as downregulation of STAT3 expression at 0.5 uM incubated for 24 hrs in presence of CuCl2 by mRNA sequencing analysis; type: functional, cell-based
Mus musculus [19] = assay: Anti-NAFLD activity in high-fat diet-induced male C57BL/6J mouse model assessed as increase in lipid droplets accumulation in liver at 125 mg/kg, po compound administrated as copper complex measured for 10 weeks by H and E staining based analysis; type: functional, organism-based
Mus musculus [20] = assay: Anti-NAFLD activity in high-fat diet-induced male C57BL/6J mouse model assessed as increase in lipid droplets accumulation in liver at 125 mg/kg, po compound administrated as copper complex measured for 10 weeks by oil red O staining based analysis; type: functional, organism-based
[21] = Toxicity in male C57BL/6 mouse assessed as lung lesion at 125 mg/kg, po compound administrated as copper complex measured for 10 weeks; type: organism-based; details: in vivo, 1680 h
[22] = Toxicity in male C57BL/6 mouse assessed as spleen lesion at 125 mg/kg, po compound administrated as copper complex measured for 10 weeks; type: organism-based; details: in vivo, 1680 h
[23] = Toxicity in male C57BL/6 mouse assessed as kidney lesion at 125 mg/kg, po compound administrated as copper complex measured for 10 weeks; type: organism-based; details: in vivo, 1680 h
Mus musculus [24] = assay: Anti-NAFLD activity in high-fat diet-induced male C57BL/6J mouse model assessed as increase in copper level in serum at 125 mg/kg, po compound administrated as copper complex measured for 10 weeks by ICP-MS analysis; type: functional, organism-based
[25] = Toxicity in male C57BL/6 mouse assessed as change in ALT level at 125 mg/kg, po compound administrated as copper complex measured for 10 weeks; type: organism-based; details: in vivo, 1680 h
Mus musculus [26] = assay: Anti-NAFLD activity in high-fat diet-induced male C57BL/6J mouse model assessed as reduction in IL-6 level in liver at 125 mg/kg, po compound administrated as copper complex measured for 10 weeks; type: functional, organism-based
Mus musculus [27] = assay: Anti-NAFLD activity in high-fat diet-induced male C57BL/6J mouse model assessed as increase in glucose level serum at 125 mg/kg, po compound administrated as copper complex measured for 10 weeks; type: functional, organism-based
Mus musculus [28] = assay: Anti-NAFLD activity in high-fat diet-induced male C57BL/6J mouse model assessed as decrease in 3-phosphoglycerate at 125 mg/kg, po compound administrated as copper complex measured for 10 weeks by LC-MS/MS analysis; type: functional, organism-based
Mus musculus [29] = assay: Anti-NAFLD activity in high-fat diet-induced male C57BL/6J mouse model assessed as increase in lactate level at 125 mg/kg, po compound administrated as copper complex measured for 10 weeks by LC-MS/MS analysis; type: functional, organism-based
Mus musculus [30] = assay: Anti-NAFLD activity in high-fat diet-induced male C57BL/6J mouse model assessed as increase in S7P level in liver at 125 mg/kg, po compound administrated as copper complex measured for 10 weeks by LC-MS/MS analysis; type: functional, organism-based

With O=c1c(O)c(-c2ccc3cccc(O)c3n2)oc2ccccc12 the “fold change (FC)” value [1] was about 5, the Stability [2] was “Stable” and the Stability [3] was “Stable”. For the same molecule, the Activity [4] was 0.199, the Activity (HeLa) was “Dose-dependent-effect” and the Activity (Hepatocyte) was “Non-toxic”. The Activity (HepG2 [5]) was “Active”, the Activity (HepG2 [6]) was “Active” and the Activity (HepG2 [7]) was “Active”. The Activity (HepG2 [8]) was “Active”, the Activity (HepG2 [9]) was “Active” and the Activity (HepG2 [10]) was “Active”. The Activity (HepG2 [11]) was “Active”, the Activity (HepG2 [12]) was “Active” and the Activity (HepG2 [13]) was “Active”. The Activity (HepG2 [14]) was “Active”, the Activity (HepG2 [15]) was “Active” and the Activity (HepG2 [16]) was “Active”. The Activity (HepG2 [17]) was “Active”, the Activity (HepG2 [18]) was “Active” and the Activity (Mus musculus [19]) was “Active”. For the same molecule, the Activity (Mus musculus [20]) was “Active”, the Activity [21] was “Non-toxic” and the Activity [22] was “Non-toxic”. The Activity [23] was “Non-toxic”, the Activity (Mus musculus [24]) was “Active” and the Activity [25] was “Non-toxic”. The Activity (Mus musculus [26]) was “Active”, the Activity (Mus musculus [27]) was “Active” and the Activity (Mus musculus [28]) was “Active”. The Activity (Mus musculus [29]) was “Active” and the Activity (Mus musculus [30]) was “Active”.
